# Activity calls are given as the source filed them. The rule behind the calls is not given here.
# Test system: Klebsiella pneumoniae
# Experiment: Antibacterial activity against Klebsiella pneumoniae ATCC 700603 assessed as inhibition of bacterial growth incubated for 18 hrs by broth microdilution method
# Type: functional
# Conditions: not given
row,SMILES,Activity
1,O=C(Nc1cccc(Cl)c1)N[C@H]1CCN(CCC(Oc2ccc(C(F)(F)F)cc2)c2ccccc2)C1 (some centres not stated),inactive
2,O=C(Nc1ccccc1)NC1CCN(CCC(Oc2ccc(C(F)(F)F)cc2)c2ccccc2)CC1 (racemic),inactive
3,COc1cccc(OC(CCN2CCC(NC(=O)Nc3cccc(Cl)c3)CC2)c2ccccc2)c1 (racemic),inactive
4,O=C(Nc1cccc(Cl)c1)NC1CCN(CCC(Oc2ccccc2Cl)c2ccccc2)CC1 (racemic),inactive
5,O=C(Nc1cccc(Cl)c1)NC1CCN(CCC(Oc2ccccc2F)c2ccccc2)CC1 (racemic),inactive

# Test system: Staphylococcus aureus
# Experiment: Antibacterial activity against vancomycin-intermediate Staphylococcus aureus ATCC 700699 assessed as inhibition of bacterial growth incubated for 18 hrs by broth microdilution method
# Type: functional
# Conditions: not given
row,SMILES,MIC [µg/mL]
1,O=C(Nc1cccc(Cl)c1)N[C@H]1CCN(CCC(Oc2ccc(C(F)(F)F)cc2)c2ccccc2)C1 (some centres not stated),1.56
2,O=C(Nc1ccccc1)NC1CCN(CCC(Oc2ccc(C(F)(F)F)cc2)c2ccccc2)CC1 (racemic),> 12.5
3,COc1cccc(OC(CCN2CCC(NC(=O)Nc3cccc(Cl)c3)CC2)c2ccccc2)c1 (racemic),12.5
4,O=C(Nc1cccc(Cl)c1)NC1CCN(CCC(Oc2ccccc2Cl)c2ccccc2)CC1 (racemic),6.25
5,O=C(Nc1cccc(Cl)c1)NC1CCN(CCC(Oc2ccccc2F)c2ccccc2)CC1 (racemic),12.5

# Test system: Staphylococcus aureus
# Experiment: Antibacterial activity against methicillin-resistant Staphylococcus aureus clinical strain 19449 assessed as inhibition of bacterial growth incubated for 18 hrs by broth microdilution method
# Type: functional
# Conditions: not given
row,SMILES,MIC [µg/mL]
1,O=C(Nc1cccc(Cl)c1)N[C@H]1CCN(CCC(Oc2ccc(C(F)(F)F)cc2)c2ccccc2)C1 (some centres not stated),3.12
2,O=C(Nc1ccccc1)NC1CCN(CCC(Oc2ccc(C(F)(F)F)cc2)c2ccccc2)CC1 (racemic),> 12.5
3,COc1cccc(OC(CCN2CCC(NC(=O)Nc3cccc(Cl)c3)CC2)c2ccccc2)c1 (racemic),12.5
4,O=C(Nc1cccc(Cl)c1)NC1CCN(CCC(Oc2ccccc2Cl)c2ccccc2)CC1 (racemic),6.25
5,O=C(Nc1cccc(Cl)c1)NC1CCN(CCC(Oc2ccccc2F)c2ccccc2)CC1 (racemic),12.5

# Test system: Escherichia coli
# Experiment: Antibacterial activity against Escherichia coli ATCC 25922 assessed as inhibition of bacterial growth incubated for 18 hrs by broth microdilution method
# Type: functional
# Conditions: not given
row,SMILES,Activity
1,O=C(Nc1cccc(Cl)c1)N[C@H]1CCN(CCC(Oc2ccc(C(F)(F)F)cc2)c2ccccc2)C1 (some centres not stated),inactive
2,O=C(Nc1ccccc1)NC1CCN(CCC(Oc2ccc(C(F)(F)F)cc2)c2ccccc2)CC1 (racemic),inactive
3,COc1cccc(OC(CCN2CCC(NC(=O)Nc3cccc(Cl)c3)CC2)c2ccccc2)c1 (racemic),inactive
4,O=C(Nc1cccc(Cl)c1)NC1CCN(CCC(Oc2ccccc2Cl)c2ccccc2)CC1 (racemic),inactive
5,O=C(Nc1cccc(Cl)c1)NC1CCN(CCC(Oc2ccccc2F)c2ccccc2)CC1 (racemic),inactive

# Test system: Staphylococcus epidermidis
# Experiment: Antibacterial activity against methicillin-susceptible Staphylococcus epidermidis ATCC 12228 assessed as inhibition of bacterial growth incubated for 18 hrs by broth microdilution method
# Type: functional
# Conditions: not given
row,SMILES,MIC [µg/mL]
1,O=C(Nc1cccc(Cl)c1)N[C@H]1CCN(CCC(Oc2ccc(C(F)(F)F)cc2)c2ccccc2)C1 (some centres not stated),1.56
2,O=C(Nc1ccccc1)NC1CCN(CCC(Oc2ccc(C(F)(F)F)cc2)c2ccccc2)CC1 (racemic),> 12.5
3,COc1cccc(OC(CCN2CCC(NC(=O)Nc3cccc(Cl)c3)CC2)c2ccccc2)c1 (racemic),6.25
4,O=C(Nc1cccc(Cl)c1)NC1CCN(CCC(Oc2ccccc2Cl)c2ccccc2)CC1 (racemic),6.25
5,O=C(Nc1cccc(Cl)c1)NC1CCN(CCC(Oc2ccccc2F)c2ccccc2)CC1 (racemic),12.5

# Test system: Pseudomonas aeruginosa
# Experiment: Antibacterial activity against Pseudomonas aeruginosa ATCC 27853 assessed as inhibition of bacterial growth incubated for 18 hrs by broth microdilution method
# Type: functional
# Conditions: not given
row,SMILES,Activity
1,O=C(Nc1cccc(Cl)c1)N[C@H]1CCN(CCC(Oc2ccc(C(F)(F)F)cc2)c2ccccc2)C1 (some centres not stated),inactive
2,O=C(Nc1ccccc1)NC1CCN(CCC(Oc2ccc(C(F)(F)F)cc2)c2ccccc2)CC1 (racemic),inactive
3,COc1cccc(OC(CCN2CCC(NC(=O)Nc3cccc(Cl)c3)CC2)c2ccccc2)c1 (racemic),inactive
4,O=C(Nc1cccc(Cl)c1)NC1CCN(CCC(Oc2ccccc2Cl)c2ccccc2)CC1 (racemic),inactive
5,O=C(Nc1cccc(Cl)c1)NC1CCN(CCC(Oc2ccccc2F)c2ccccc2)CC1 (racemic),inactive

# Test system: Staphylococcus aureus
# Experiment: Antibacterial activity against biofilm producer Staphylococcus aureus RN450 assessed as inhibition of bacterial growth incubated for 18 hrs by broth microdilution method
# Type: functional
# Conditions: not given
row,SMILES,MIC [µg/mL]
1,O=C(Nc1cccc(Cl)c1)N[C@H]1CCN(CCC(Oc2ccc(C(F)(F)F)cc2)c2ccccc2)C1 (some centres not stated),1.56
2,O=C(Nc1ccccc1)NC1CCN(CCC(Oc2ccc(C(F)(F)F)cc2)c2ccccc2)CC1 (racemic),> 12.5
3,COc1cccc(OC(CCN2CCC(NC(=O)Nc3cccc(Cl)c3)CC2)c2ccccc2)c1 (racemic),3.12
4,O=C(Nc1cccc(Cl)c1)NC1CCN(CCC(Oc2ccccc2Cl)c2ccccc2)CC1 (racemic),1.56
5,O=C(Nc1cccc(Cl)c1)NC1CCN(CCC(Oc2ccccc2F)c2ccccc2)CC1 (racemic),6.25

# Test system: not listed separately
# Experiment: Cytotoxicity against human MRC5 cells assessed as reduction in cell viability incubated for 24 hrs by MTT assay
# Type: toxicity, cell-based
# Conditions: not given
row,SMILES,IC50 at 24 h [µg/mL]
1,O=C(Nc1cccc(Cl)c1)N[C@H]1CCN(CCC(Oc2ccc(C(F)(F)F)cc2)c2ccccc2)C1 (some centres not stated),3.12

# Test system: Staphylococcus epidermidis
# Experiment: Antibacterial activity against linezolid-resistant Staphylococcus epidermidis NIL 4399/19 assessed as inhibition of bacterial growth incubated for 18 hrs by broth microdilution method
# Type: functional
# Conditions: not given
row,SMILES,MIC [µg/mL]
1,O=C(Nc1cccc(Cl)c1)N[C@H]1CCN(CCC(Oc2ccc(C(F)(F)F)cc2)c2ccccc2)C1 (some centres not stated),1.56
2,O=C(Nc1ccccc1)NC1CCN(CCC(Oc2ccc(C(F)(F)F)cc2)c2ccccc2)CC1 (racemic),> 12.5
3,COc1cccc(OC(CCN2CCC(NC(=O)Nc3cccc(Cl)c3)CC2)c2ccccc2)c1 (racemic),6.25
4,O=C(Nc1cccc(Cl)c1)NC1CCN(CCC(Oc2ccccc2Cl)c2ccccc2)CC1 (racemic),3.12
5,O=C(Nc1cccc(Cl)c1)NC1CCN(CCC(Oc2ccccc2F)c2ccccc2)CC1 (racemic),6.25

# Test system: not listed separately
# Experiment: Induction of hemolysis in horse RBC at 200 uM incubated for 1 hr
# Type: toxicity, cell-based, Equus caballus, Erythrocyte
# Conditions: horse red blood cells (erythrocytes), read-out: Activity
row,SMILES,"hemolysis at 1 h, 200 µM [%]"
1,O=C(Nc1cccc(Cl)c1)N[C@H]1CCN(CCC(Oc2ccc(C(F)(F)F)cc2)c2ccccc2)C1 (some centres not stated),10

# Test system: Enterococcus faecalis
# Experiment: Antibacterial activity against Enterococcus faecalis ATCC 29212 assessed as inhibition of bacterial growth incubated for 18 hrs by broth microdilution method
# Type: functional
# Conditions: not given
row,SMILES,MIC [µg/mL]
1,O=C(Nc1cccc(Cl)c1)N[C@H]1CCN(CCC(Oc2ccc(C(F)(F)F)cc2)c2ccccc2)C1 (some centres not stated),3.12
2,O=C(Nc1cccc(Cl)c1)NC1CCN(CCC(Oc2ccccc2Cl)c2ccccc2)CC1 (racemic),6.25

# Test system: Staphylococcus epidermidis
# Experiment: Antibacterial activity against biofilm producer Staphylococcus epidermidis ATCC 35984 assessed as inhibition of bacterial growth incubated for 18 hrs by broth microdilution method
# Type: functional
# Conditions: not given
row,SMILES,MIC [µg/mL]
1,O=C(Nc1cccc(Cl)c1)N[C@H]1CCN(CCC(Oc2ccc(C(F)(F)F)cc2)c2ccccc2)C1 (some centres not stated),3.12
2,O=C(Nc1ccccc1)NC1CCN(CCC(Oc2ccc(C(F)(F)F)cc2)c2ccccc2)CC1 (racemic),12.5
3,COc1cccc(OC(CCN2CCC(NC(=O)Nc3cccc(Cl)c3)CC2)c2ccccc2)c1 (racemic),6.25
4,O=C(Nc1cccc(Cl)c1)NC1CCN(CCC(Oc2ccccc2Cl)c2ccccc2)CC1 (racemic),3.12
5,O=C(Nc1cccc(Cl)c1)NC1CCN(CCC(Oc2ccccc2F)c2ccccc2)CC1 (racemic),12.5

# Test system: Staphylococcus aureus
# Experiment: Antibacterial activity against methicillin-susceptible Staphylococcus aureus ATCC 25923 assessed as inhibition of bacterial growth incubated for 18 hrs by broth microdilution method
# Type: functional
# Conditions: not given
row,SMILES,MIC [µg/mL]
1,O=C(Nc1cccc(Cl)c1)N[C@H]1CCN(CCC(Oc2ccc(C(F)(F)F)cc2)c2ccccc2)C1 (some centres not stated),3.12
2,O=C(Nc1ccccc1)NC1CCN(CCC(Oc2ccc(C(F)(F)F)cc2)c2ccccc2)CC1 (racemic),> 12.5
3,COc1cccc(OC(CCN2CCC(NC(=O)Nc3cccc(Cl)c3)CC2)c2ccccc2)c1 (racemic),12.5
4,O=C(Nc1cccc(Cl)c1)NC1CCN(CCC(Oc2ccccc2Cl)c2ccccc2)CC1 (racemic),6.25
5,O=C(Nc1cccc(Cl)c1)NC1CCN(CCC(Oc2ccccc2F)c2ccccc2)CC1 (racemic),12.5

# Test system: not listed separately
# Experiment: Cytotoxicity against human BJ cells assessed as reduction in cell viability incubated for 24 hrs by MTT assay
# Type: toxicity, cell-based
# Conditions: not given
row,SMILES,IC50 at 24 h [µg/mL]
1,O=C(Nc1cccc(Cl)c1)N[C@H]1CCN(CCC(Oc2ccc(C(F)(F)F)cc2)c2ccccc2)C1 (some centres not stated),6.25

# Test system: Enterococcus faecium
# Experiment: Antibacterial activity against vancomycin-resistant Enterococcus faecium assessed as inhibition of bacterial growth incubated for 18 hrs by broth microdilution method
# Type: functional
# Conditions: not given
row,SMILES,MIC [µg/mL]
1,O=C(Nc1cccc(Cl)c1)N[C@H]1CCN(CCC(Oc2ccc(C(F)(F)F)cc2)c2ccccc2)C1 (some centres not stated),0.78
2,O=C(Nc1cccc(Cl)c1)NC1CCN(CCC(Oc2ccccc2Cl)c2ccccc2)CC1 (racemic),6.25

# Test system: Streptococcus pneumoniae
# Experiment: Antibacterial activity against Streptococcus pneumoniae ATCC 49619 assessed as inhibition of bacterial growth incubated for 18 hrs by broth microdilution method
# Type: functional
# Conditions: not given
row,SMILES,MIC [µg/mL]
1,O=C(Nc1cccc(Cl)c1)N[C@H]1CCN(CCC(Oc2ccc(C(F)(F)F)cc2)c2ccccc2)C1 (some centres not stated),6.25
2,O=C(Nc1ccccc1)NC1CCN(CCC(Oc2ccc(C(F)(F)F)cc2)c2ccccc2)CC1 (racemic),> 12.5
3,COc1cccc(OC(CCN2CCC(NC(=O)Nc3cccc(Cl)c3)CC2)c2ccccc2)c1 (racemic),12.5
4,O=C(Nc1cccc(Cl)c1)NC1CCN(CCC(Oc2ccccc2Cl)c2ccccc2)CC1 (racemic),12.5
5,O=C(Nc1cccc(Cl)c1)NC1CCN(CCC(Oc2ccccc2F)c2ccccc2)CC1 (racemic),12.5

# — ChEMBL document CHEMBL5346933, “Design and synthesis of novel arylurea derivatives of aryloxy(1-phenylpropyl) alicyclic diamines with antimicrobial activity against multidrug-resistant Gram-positive bacteria” (Eur J Med Chem, 2023)
